Data published in patent US11926645B2, “Compounds and methods for treatment of viral infections” (priority 2020, dated 2024).
pEC50: −log10 of the molar value. Where two headings read alike, the source gives them in different places.

What was measured:
SARS-CoV-2-Nluc viruses = assay: microbe, parasite or virus in culture; assay type: cell-based
RSV strain A2 = assay: RSV antiviral assay (Hep2), EC50-Hep2/B1-384; assay type: cell-based; conditions: human respiratory syncytial virus, HEp-2, 96 h; Hep2 cells, 4 days, Cell-Titer Glo
[1] = test system: RSV-Fluc (Respiratory Syncytial virus strain A2 containing the firefly luciferase reporter); assay: microbe, parasite or virus in culture; assay type: cell-based; conditions: human respiratory syncytial virus, 72 h, NHBE cells, three days
in vitro [2] = assay type: cell-based; conditions: human
Method: The cytotoxicity of compounds was determined in A549-hACE2 cells in the following manner. Compounds (200 nL) were spotted onto 384-well Grenier plates prior to seeding 5000 A549-hACE2 cells/well in a volume of 40 μL culture medium. The plates were incubated at 37° C. for 48 hours with 5% CO2. On day 2, 40 μL of CellTiter-Glo (Promega) was added and mixed 5 times.

in vitro [3] = assay type: in vitro ADME, Human; conditions: 2 μM substrate, 1.0 mg/mL protein, pH 7.4
Method: Duplicate aliquots of test compound or positive control substrate (GS-7340) were added to S9 stock diluted with 100 mM phosphate buffered saline, pH 7.4, to obtain a protein concentration of 1.0 mg/mL. The S9 metabolic reactions were initiated by the addition of the substrates to the S9 reaction mixture to a final concentration of 2 μM. At 0, 10, 20, 30, 60 and 120 min, 25 μL aliquots of the reaction mixture were transferred to plates containing 225 μl of IS/Q solution. After quenching, the plates were centrifuged at 3000×g for 30 minutes, and 150 μL aliquots of each supernatant were diluted with 150 μL water. Aliquots (10 μL) of the diluted supernatant were analyzed on a Thermo Q-Exactive mass spectrometer as described below.
Quantification of test compounds and controls was performed by analyte/internal standard peak area ratio (PAR) values measured on a Thermo Q-Exactive mass spectrometer coupled to a Dionex UltiMate 3000 HPLC with a Leap Technologies HTC PAL autosampler. The column used was a Thermo Hypersil GOLD (1.9 μm particle size, 2.1×50 mm). Mobile phase A consisted of 0.1% (v/v) formic acid in water. Mobile phase B consisted of 0.1% (v/v) formic acid in acetonitrile. Elution of analytes was achieved by a series of linear gradients of acetonitrile in water containing 0.1% (v/v) formic acid. The mass spectrometer was calibrated on a weekly basis and mass tolerance of 5 ppm was used.

[4] = assay type: in vivo, Sprague-Dawley rats; conditions: male Sprague-Dawley rats, oral NHC 10 mg/kg
Method: β-d-N^4-hydroxycytidine (NHC) was dosed orally by gavage to male Sprague-Dawley rats (n=3) at 10 mg/kg in 3.9% citric acid and 96.1% water, pH 2.8; Molnupiravir at 12.7 mg/kg in 2.5% kolliphor RH 40, 10% polyethylene glycol 300 and 87.5% water, pH 5.3. […]

in vitro [5] = conditions: African green monkey
in vitro [6] = conditions: hamster
in vitro [7] = conditions: human, PrestoBlue
[8] = Severe acute respiratory syndrome coronavirus 2, 48 h, read-out: SARS-CoV2 EC50

Row | Compound | pEC50 (SARS-CoV-2-Nluc viruses; [8]) | pEC50 (RSV strain A2) | pEC50 [1] | CC50 at 48 h (in vitro [2]) [nM] | also measured
1 | CCCC(=O)OC[C@H]1O[C@@](C#N)(c2ccc3c(N)ncnn23)[C@H](O)[C@@H]1O [Compound 25, ((2R,3S,4R,5R)-5-(4-aminopyrrolo[2,1-f][1,2,4]triazin-7-yl)-5-cyano-3,4-dihydroxytetrahydrofuran-2-yl)methyl butyrate] | 5.91 | 6.65 | 6.22 | > 10000 | 
2 | N#C[C@@]1(c2ccc3c(N)ncnn23)O[C@H](COC(=O)C2CCC2)[C@@H](O)[C@H]1O [Compound 26, ((2R,3S,4R,5R)-5-(4-aminopyrrolo[2,1-f][1,2,4]triazin-7-yl)-5-cyano-3,4-dihydroxytetrahydrofuran-2-yl)methyl cyclobutanecarboxylate] | 5.92 | 6.47 | 5.96 | > 10000 | 
3 | N#C[C@@]1(c2ccc3c(N)ncnn23)O[C@H](COC(=O)C2CC3(CCC3)C2)[C@@H](O)[C@H]1O [Compound 27, ((2R,3S,4R,5R)-5-(4-aminopyrrolo[2,1-f][1,2,4]triazin-7-yl)-5-cyano-3,4-dihydroxytetrahydrofuran-2-yl)methyl spiro[3.3]heptane-2-carboxylate] | 6.25 | 6.61 | 5.83 | > 10000 | 
4 | N#C[C@@]1(c2ccc3c(N)ncnn23)O[C@H](COC(=O)C2CCCC2)[C@@H](O)[C@H]1O [Compound 28, ((2R,3S,4R,5R)-5-(4-aminopyrrolo[2,1-f][1,2,4]triazin-7-yl)-5-cyano-3,4-dihydroxytetrahydrofuran-2-yl)methyl cyclopentanecarboxylate] | 6.37 | 6.57 | 5.75 | 40000 | 
5 | N#C[C@@]1(c2ccc3c(N)ncnn23)O[C@H](COC(=O)C2CCCCCC2)[C@@H](O)[C@H]1O [Compound 29, ((2R,3S,4R,5R)-5-(4-aminopyrrolo[2,1-f][1,2,4]triazin-7-yl)-5-cyano-3,4-dihydroxytetrahydrofuran-2-yl)methyl cycloheptanecarboxylate] | 6.52 | 6.71 | 5.58 | 38000 | 
6 | CC(=O)OC[C@H]1O[C@@](C#N)(c2ccc3c(N)ncnn23)[C@H](O)[C@@H]1O [Compound 30, ((2R,3S,4R,5R)-5-(4-aminopyrrolo[2,1-f][1,2,4]triazin-7-yl)-5-cyano-3,4-dihydroxytetrahydrofuran-2-yl)methyl acetate] | 5.63 | 6.19 | 5.62 | > 50000 | 
7 | CCCCCC(=O)OC[C@H]1O[C@@](C#N)(c2ccc3c(N)ncnn23)[C@H](O)[C@@H]1O [Compound 31, ((2R,3S,4R,5R)-5-(4-aminopyrrolo[2,1-f][1,2,4]triazin-7-yl)-5-cyano-3,4-dihydroxytetrahydrofuran-2-yl)methyl hexanoate] | 6.49 | 6.70 | 5.56 | 24000 | 
8 | CC(C)(C)C(=O)OC[C@H]1O[C@@](C#N)(c2ccc3c(N)ncnn23)[C@H](O)[C@@H]1O [Compound 32, ((2R,3S,4R,5R)-5-(4-aminopyrrolo[2,1-f][1,2,4]triazin-7-yl)-5-cyano-3,4-dihydroxytetrahydrofuran-2-yl)methyl pivalate] | 5.63 | 6.23 | 6.24 | > 50000 | 
9 | O=c1nc(NO)ccn1[C@@H]1O[C@H](CO)[C@@H](O)[C@H]1O [NHC, β-d-N^4-hydroxycytidine] |  |  |  |  | Human GI S9 T1/2 (in vitro [3]): >11.7 h; NHC AUCinf. ([4]; plasma): 8.48 µM·h; Cmax ([4]; plasma, read-out: NHC Cmax): 3.13 µM; NHC F % (based on NHC mg-eq dose) [4]: 37.0%
10 | CCC(CC)COC(=O)[C@H](C)N[P@](=O)(OC[C@H]1O[C@@](C#N)(c2ccc3c(N)ncnn23)[C@H](O)[C@@H]1O)Oc1ccccc1 [Remdesivir] |  |  |  |  | pEC50 (SARS-CoV-2-Nluc viruses; Severe acute respiratory syndrome coronavirus 2, host cells A549-ACE2, read-out: EC50, WA1/2020-nano luciferase): 7.17; CC50 (in vitro [5]): > 100000 nM; CC50 (in vitro [6]): > 100000 nM; CC50 (in vitro [7]; CC50, DF2 HAE, primary diseased (asthma) HAE donor DF2, 72 hours): > 33000 nM; CC50 (in vitro [7]; CC50, M2 HAE, primary HAE donor M2, 72 hours): 102000 nM; CC50 (in vitro [7]; CC50, M6 HAE, primary HAE donor M6, 72 hours): > 100000 nM; CC50 (in vitro [2]; host cells A549-ACE2, read-out: CC50, A549-ACE2): > 16700 nM
